Measurements: patent publication US12077503B2, “Substituted cyclic amides and their use as herbicides” (FMC CORPORATION, priority 2015, dated 2024)

Key:
Assay type in all cases: in vivo
Kochia (Kochia scoparia) [1] = test: Test A preemergence; conditions: Bassia scoparia, pre-emergence, 240 h, Preemergence
Outline: (§1)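 Compounds were formulated in a non-phytotoxic solvent mixture with surfactant and applied as a preemergence directed soil spray after seeding, or sprayed postemergence over plants 2 to 10 cm tall at the one- to two-leaf stage. Evaluation after about 10 d compared treated with untreated controls, using a scale from 0 (no effect) to 100 (complete control).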

[2] = system: barnyardgrass (Echinochloa crus-galli); test: Test A preemergence; conditions: Echinochloa crus-galli, pre-emergence, 240 h, Preemergence
Outline: as §1

[3] = system: giant foxtail (Setaria faberii); test: Test A preemergence; conditions: Setaria faberi, pre-emergence, 240 h, Preemergence
Outline: as §1

[4] = system: pigweed (Amaranthus retroflexus); test: Test A preemergence; conditions: Amaranthus retroflexus, pre-emergence, 240 h, Preemergence
[5] = system: ragweed (common ragweed, Ambrosia elatior); test: Test A preemergence; conditions: Ambrosia artemisiifolia, pre-emergence, 240 h, Preemergence
Outline: as §1

[6] = system: ryegrass, Italian (Italian ryegrass, Lolium multiflorum); test: Test A preemergence; conditions: Lolium multiflorum, pre-emergence, 240 h, Preemergence
Outline: as §1

[7] = system: Galium (catchweed bedstraw, Galium aparine); test: Test A postemergence; conditions: Galium, post-emergence, 240 h, Postemergence, read-out: Plant response rating, Galium
Outline: as §1

Kochia (Kochia scoparia) [8] = test: Test A postemergence; conditions: Bassia scoparia, post-emergence, 240 h, Postemergence, read-out: Plant response rating, Kochia
Outline: as §1

[9] = system: barnyardgrass (Echinochloa crus-galli); test: Test A postemergence; conditions: Echinochloa crus-galli, post-emergence, 240 h, Postemergence, read-out: Plant response rating, Barnyardgrass
Outline: as §1

[10] = system: blackgrass (Alopecurus myosuroides); test: Test A postemergence; conditions: Alopecurus myosuroides, post-emergence, 240 h, Postemergence, read-out: Plant response rating, Blackgrass
Outline: as §1

corn (Zea mays) = test: Test A postemergence; conditions: Zea mays, post-emergence, 240 h, Postemergence
Outline: as §1

[11] = system: giant foxtail (Setaria faberii); test: Test A postemergence; conditions: Setaria faberi, post-emergence, 240 h, Postemergence, read-out: Plant response rating, Foxtail, Giant
Outline: as §1

[12] = system: pigweed (Amaranthus retroflexus); test: Test A postemergence; conditions: Amaranthus retroflexus, post-emergence, 240 h, Postemergence, read-out: Plant response rating, Pigweed
Outline: as §1

[13] = system: ragweed (common ragweed, Ambrosia elatior); test: Test A postemergence; conditions: Ambrosia artemisiifolia, post-emergence, 240 h, Postemergence, read-out: Plant response rating, Ragweed
Outline: as §1

[14] = system: ryegrass, Italian (Italian ryegrass, Lolium multiflorum); test: Test A postemergence; conditions: Lolium multiflorum, post-emergence, 240 h, Postemergence, read-out: Plant response rating, Ryegrass, Italian
Outline: as §1

[15] = system: wheat (Triticum aestivum); test: Test A postemergence; conditions: Triticum aestivum, post-emergence, 240 h, Postemergence, read-out: Plant response rating, Wheat
Outline: as §1

[16] = system: barnyardgrass (Echinochloa crus-galli); test: Test B flooded paddy test; conditions: Echinochloa crus-galli, 250 g ai/ha, Flood; 0 to 100 scale where 0 is no effect and 100 is complete control; read-out: Barnyardgrass plant response rating
Outline: (§2)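 2-leaf plants; pots flooded 3 cm over soil; cpd added to paddy water; depth held; greenhouse 13–15 d; visual rating vs controls, 0 = no effect, 100 = complete control.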

[17] = system: ducksalad (Heteranthera limosa); test: Test B flooded paddy test; conditions: Heteranthera limosa, 250 g ai/ha, Flood; 0 to 100 scale where 0 is no effect and 100 is complete control; read-out: Ducksalad plant response rating
Outline: as §2

rice (Oryra sativa) = test: Test B flooded paddy test; conditions: Oryza sativa, 250 g ai/ha, Flood; 0 to 100 scale where 0 is no effect and 100 is complete control; read-out: Rice plant response rating
Outline: as §2

[18] = system: sedge, umbrella (small-flower umbrella sedge, Cyperus difformis); test: Test B flooded paddy test; conditions: Cyperus difformis, 250 g ai/ha, Flood; 0 to 100 scale where 0 is no effect and 100 is complete control; read-out: Sedge, Umbrella plant response rating
Outline: as §2

[19] = 125 g ai/ha, visual injury after approximately 10 d, 0 to 100 scale where 0 is no effect and 100 is complete control
[20] = 31 g ai/ha, visual injury after approx. 10 d, 0 to 100 scale, 0 no effect, 100 complete control

Q: With `O=C(Nc1cccc(F)c1F)[C@H]1C(=O)N(C2CC2)CC[C@@H]1c1ccc(F)cc1` [Compound 1003] as the molecule, how does the pest or weed control at 31 g/ha (Kochia (Kochia scoparia) [1]; 31 g ai/ha, 0 to 100 scale where 0 is no effect and 100 is complete control, read-out: Kochia plant response rating) read?
A: Its pest or weed control at 31 g/ha is 0%.

Q: And the pest or weed control at 125 g/ha (Kochia (Kochia scoparia) [1]; 125 g ai/ha, visual injury rating after approximately 10 d, read-out: Kochia plant response rating (0 to 100 scale, 0 is no effect, 100 is complete control))?
A: The pest or weed control at 125 g/ha was 0%.

Q: And the pest or weed control at 125 g/ha ([2]; 125 g ai/ha, visual injury rating after approximately 10 d, read-out: Barnyardgrass plant response rating (0 to 100 scale, 0 is no effect, 100 is complete control))?
A: The pest or weed control at 125 g/ha was 0%.

Q: What about the pest or weed control at 31 g/ha ([2]; 31 g ai/ha, 0 to 100 scale (0 no effect, 100 complete control), read-out: Plant response rating, Barnyardgrass) of the same molecule?
A: Its pest or weed control at 31 g/ha is 0%.

Q: And the pest or weed control at 125 g/ha ([3]; 125 g ai/ha, visual injury rating after approximately 10 d, read-out: Foxtail, Giant plant response rating (0 to 100 scale, 0 is no effect, 100 is complete control))?
A: The pest or weed control at 125 g/ha was 60%.

Q: What about the pest or weed control at 31 g/ha ([3]; 31 g ai/ha, 0 to 100 scale (0 no effect, 100 complete control), read-out: Plant response rating, Foxtail, Giant) of the same molecule?
A: Its pest or weed control at 31 g/ha is 0%.

Q: And the pest or weed control at 31 g/ha ([4]; 31 g ai/ha, 0 to 100 scale where 0 is no effect and 100 is complete control, read-out: Pigweed plant response rating)?
A: The pest or weed control at 31 g/ha was 0%.

Q: What about the pest or weed control at 125 g/ha ([4]; 125 g ai/ha, visual injury rating after approximately 10 d, read-out: Pigweed plant response rating (0 to 100 scale, 0 is no effect, 100 is complete control)) of the same molecule?
A: The pest or weed control at 125 g/ha was 0%.

Q: What about the pest or weed control at 31 g/ha ([5]; 31 g ai/ha, 0 to 100 scale where 0 is no effect and 100 is complete control, read-out: Ragweed plant response rating) of the same molecule?
A: The pest or weed control at 31 g/ha was 0%.

Q: And the pest or weed control at 125 g/ha ([5]; 125 g ai/ha, visual injury rating after approximately 10 d, read-out: Ragweed plant response rating (0 to 100 scale, 0 is no effect, 100 is complete control))?
A: The pest or weed control at 125 g/ha was 0%.

Q: What about the pest or weed control at 31 g/ha ([6]; 31 g ai/ha, 0 to 100 scale where 0 is no effect and 100 is complete control, read-out: Ryegrass, Italian plant response rating) of the same molecule?
A: The pest or weed control at 31 g/ha was 0%.

Q: And the pest or weed control at 125 g/ha ([6]; 125 g ai/ha, visual injury rating after approximately 10 d, read-out: Ryegrass, Italian plant response rating (0 to 100 scale, 0 is no effect, 100 is complete control))?
A: The pest or weed control at 125 g/ha was 0%.

Q: And the pest or weed control at 125 g/ha [7, 19]?
A: The pest or weed control at 125 g/ha was 0%.

Q: What about the pest or weed control at 31 g/ha [7, 20] of the same molecule?
A: Its pest or weed control at 31 g/ha is 0%.

Q: What about the pest or weed control at 125 g/ha (Kochia (Kochia scoparia) [8]; [19]) of the same molecule?
A: The pest or weed control at 125 g/ha was 0%.

Q: What about the pest or weed control at 31 g/ha (Kochia (Kochia scoparia) [8]; [20]) of the same molecule?
A: Its pest or weed control at 31 g/ha is 0%.

Q: And the pest or weed control at 125 g/ha [9, 19]?
A: The pest or weed control at 125 g/ha was 0%.

Q: And the pest or weed control at 31 g/ha [9, 20]?
A: Its pest or weed control at 31 g/ha is 0%.

Q: What about the pest or weed control at 125 g/ha [10, 19] of the same molecule?
A: Its pest or weed control at 125 g/ha is 0%.

Q: What about the pest or weed control at 31 g/ha [10, 20] of the same molecule?
A: Its pest or weed control at 31 g/ha is 0%.

Q: And the Corn plant response rating (crop injury, 0 = no effect, 100 = complete kill) at 125 g/ha (corn (Zea mays); [19])?
A: Its Corn plant response rating (crop injury, 0 = no effect, 100 = complete kill) at 125 g/ha is 0%.

Q: And the Corn plant response rating (crop injury, 0 = no effect, 100 = complete kill) at 31 g/ha (corn (Zea mays); [20])?
A: Its Corn plant response rating (crop injury, 0 = no effect, 100 = complete kill) at 31 g/ha is 0%.

Q: And the pest or weed control at 125 g/ha [11, 19]?
A: The pest or weed control at 125 g/ha was 0%.

Q: What about the pest or weed control at 31 g/ha [11, 20] of the same molecule?
A: The pest or weed control at 31 g/ha was 0%.

Q: And the pest or weed control at 125 g/ha [12, 19]?
A: The pest or weed control at 125 g/ha was 0%.

Q: And the pest or weed control at 31 g/ha [12, 20]?
A: The pest or weed control at 31 g/ha was 0%.

Q: What about the pest or weed control at 125 g/ha [13, 19] of the same molecule?
A: The pest or weed control at 125 g/ha was 0%.

Q: And the pest or weed control at 31 g/ha [13, 20]?
A: The pest or weed control at 31 g/ha was 0%.

Q: What about the pest or weed control at 125 g/ha [14, 19] of the same molecule?
A: Its pest or weed control at 125 g/ha is 0%.

Q: What about the pest or weed control at 31 g/ha [14, 20] of the same molecule?
A: Its pest or weed control at 31 g/ha is 0%.

Q: What about the plant injury at 125 g/ha [15, 19] of the same molecule?
A: The plant injury at 125 g/ha was 0%.

Q: What about the plant injury at 31 g/ha [15, 20] of the same molecule?
A: The plant injury at 31 g/ha was 0%.

Q: And the pest or weed control at 250 g/ha [16]?
A: The pest or weed control at 250 g/ha was 0%.

Q: What about the pest or weed control at 250 g/ha [17] of the same molecule?
A: The pest or weed control at 250 g/ha was 0%.

Q: What about the pest or weed control at 250 g/ha (rice (Oryra sativa)) of the same molecule?
A: Its pest or weed control at 250 g/ha is 0%.

Q: What about the pest or weed control at 250 g/ha [18] of the same molecule?
A: The pest or weed control at 250 g/ha was 0%.
